According to ChEMBL document CHEMBL1201862, “PubChem BioAssay data set” (2004):
Calls of active or inactive are those of the source. Cut-off read from the data, not from the text of the source, for most assays here: actives have a measured EC50 and inactives only a lower limit.

Experiments:
[1] = molecular target: T1, Heat shock factor protein 1 (Mus musculus, UniProt P38532); test: HSF1 potentiators in luciferase reporter cells, confirmation, cell-based, NIH3T3, luminescence, dose retest (AID 435004); assay type: functional;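 note: stress induced by proteasome inhibitor MG132 added 30 min after compound; luciferase reporter driven by HSF1 response element in NIH3T3 cells; actives raise luminescence as potentiators of the MG132 stress response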
T1 sequence (P38532 whole entry): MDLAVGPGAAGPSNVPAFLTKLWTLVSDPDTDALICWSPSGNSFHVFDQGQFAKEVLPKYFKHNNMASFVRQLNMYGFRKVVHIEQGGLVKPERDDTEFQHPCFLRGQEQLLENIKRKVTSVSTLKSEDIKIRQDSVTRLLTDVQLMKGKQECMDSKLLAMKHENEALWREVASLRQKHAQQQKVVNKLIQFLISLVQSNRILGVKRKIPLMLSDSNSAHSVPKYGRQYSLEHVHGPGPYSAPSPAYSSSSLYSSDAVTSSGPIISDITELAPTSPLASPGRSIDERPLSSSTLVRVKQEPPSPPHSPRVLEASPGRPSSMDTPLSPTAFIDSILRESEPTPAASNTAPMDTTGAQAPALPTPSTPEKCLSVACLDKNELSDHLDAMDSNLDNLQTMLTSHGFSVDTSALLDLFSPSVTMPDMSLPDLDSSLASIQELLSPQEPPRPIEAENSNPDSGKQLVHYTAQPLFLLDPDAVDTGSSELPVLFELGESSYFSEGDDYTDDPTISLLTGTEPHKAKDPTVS

[2] = Luminescence Cell-Based Dose Retest to Confirm Inhibitors of Cancer Stem Cells. [Related pubchem assays (depositor defined):AID2717, AID2721]; assay type: functional; conditions: Homo sapiens
Large T antigen = Large T antigen (Simian virus 40, UniProt P03070); assay type: functional, Betapolyomavirus macacae;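 note: Confirmatory-stage PubChem screen for compounds that inhibit SV40 T antigen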
[3] = cytotoxicity toward NIH3T3 fibroblasts, dose response, counter-screen, cell-based, ATP luminescence, mouse fibroblasts (AID 2010); assay type: functional;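 note: cells exposed to compound for about 90 hours before reading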
cells = assay type: functional
[4] = inhibitors of intracellular T. cruzi replication, confirmation, NIH3T3 host cells, beta-gal luminescence (AID 2044); assay type: functional, cell-based;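 note: intracellular parasites grown in NIH/3T3 mouse fibroblasts as host cells; luminescent beta-galactosidase reporter signal from transgenic T. cruzi replicating inside host cells; inhibitors lower the luminescence signal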
H4 = test: Luminescence Cell-Based Dose Response HTS to Identify Activators of 5'UTR Stem-Loop Driven Prion Protein mRNA Translation in H4 Neuroglioblastoma Cells. [Related pubchem assays: 1829 (Project Summary), 1814 (Primary HTS)]; assay type: functional; conditions: Homo sapiens
[5] = Luminescence Cell-Based Dose Confirmation HTS to Identify Activators of 5'UTR Stem-Loop Driven Alpha-Synuclein mRNA Translation in H4 Neuroglioblastoma Cells. [Related pubchem assays: 1829 (Project Summary), 1814 (Primary HTS)]; assay type: functional
[6] = Luminescence Cell-Based Dose Response HTS to Identify Activators of Luciferase Translation or Activity in H4 […] Cells. [Related pubchem assays: 1829 (Project Summary), 1814 (Primary HTS)]; assay type: functional
[7] = C. albicans growth with fluconazole, confirmation, fluorescence, retest (AID 2467); assay type: functional, cell-based
[8] = NIH-3T3 fibroblast cytotoxicity, dose response, cytotoxicity control, cell-based, fluorescence, Alamar Blue, secondary assay (AID 2327); assay type: functional;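 note: NIH-3T3 mouse fibroblasts cultured with fluconazole at 8 µg/mL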
[9] = molecular target: T1, Heat shock factor protein 1; test: inhibition of MG132-induced HSE-luciferase signal, confirmation, cell-based, NIH3T3, luminescence, dose retest (AID 2382); assay type: functional;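 note: NIH3T3 fibroblasts with HSF1-driven luciferase reporter stressed by proteasome inhibitor MG132; luminescence from HSF1-driven luciferase expression after 8 hours of MG132 stress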
Streptococcus = test: Group A Streptococcus viability loss, dose response, counter-screen for streptokinase expression inhibitor project, luminescence, BacTiterGlo (AID 1915); assay type: functional, organism-based;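 note: potency for reduction of bacterial viability or growth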
[10] = tested on: Streptococcus sp. 'group A'; test: growth inhibition of control SK(-) GAS strain, dose response, counter-screen for streptokinase expression inhibitor project, luminescence, kanamycin, BacTiterGlo, confirmation (AID 1900); assay type: functional, organism-based
Streptokinase A = molecular target: T2, Streptokinase A (Streptococcus pyogenes serotype M1, UniProt P10520); test: S. pyogenes streptokinase expression inhibitors, potency, dose response, plasminogen activation absorbance, OD405 (AID 1914); assay type: functional, Streptococcus pyogenes M1 GAS;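 note: secreted streptokinase activity via plasminogen activation per viability signal from cell pellet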
T2 sequence (P10520 whole entry): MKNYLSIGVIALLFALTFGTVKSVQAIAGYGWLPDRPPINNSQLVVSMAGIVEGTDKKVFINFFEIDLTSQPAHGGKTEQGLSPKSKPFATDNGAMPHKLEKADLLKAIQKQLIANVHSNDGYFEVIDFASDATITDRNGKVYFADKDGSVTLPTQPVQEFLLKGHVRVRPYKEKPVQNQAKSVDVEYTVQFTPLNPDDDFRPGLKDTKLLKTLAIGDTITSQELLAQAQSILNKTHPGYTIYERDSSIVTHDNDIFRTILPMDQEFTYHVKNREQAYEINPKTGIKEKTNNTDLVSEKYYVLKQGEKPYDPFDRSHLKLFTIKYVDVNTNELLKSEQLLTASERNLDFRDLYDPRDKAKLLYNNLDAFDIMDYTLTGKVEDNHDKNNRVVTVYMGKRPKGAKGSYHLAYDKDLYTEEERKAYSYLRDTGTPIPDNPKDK

[11] = molecular target: T3, Microphthalmia-associated transcription factor (Homo sapiens, UniProt O75030); test: TRPM1 promoter luciferase signal decrease, dose response, MITF inhibitor project, cell-based, SK-MEL-5, cherry-picked, set 3 (AID 493073); assay type: functional
T3 sequence (O75030 whole entry): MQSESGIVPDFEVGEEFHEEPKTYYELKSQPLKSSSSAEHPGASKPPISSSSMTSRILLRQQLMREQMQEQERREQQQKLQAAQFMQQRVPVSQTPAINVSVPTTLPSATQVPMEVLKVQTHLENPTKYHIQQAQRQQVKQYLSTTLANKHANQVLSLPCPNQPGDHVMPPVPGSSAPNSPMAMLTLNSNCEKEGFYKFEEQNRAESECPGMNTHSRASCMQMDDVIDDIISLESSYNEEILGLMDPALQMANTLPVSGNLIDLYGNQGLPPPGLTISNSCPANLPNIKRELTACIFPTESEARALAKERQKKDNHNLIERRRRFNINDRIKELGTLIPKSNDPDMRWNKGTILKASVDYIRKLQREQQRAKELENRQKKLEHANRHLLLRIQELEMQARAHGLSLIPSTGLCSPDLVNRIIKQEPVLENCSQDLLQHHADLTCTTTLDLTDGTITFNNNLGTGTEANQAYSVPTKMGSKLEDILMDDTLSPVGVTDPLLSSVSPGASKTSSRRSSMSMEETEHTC

[12] = molecular target: FAD-linked sulfhydryl oxidase ALR (Homo sapiens, UniProt P55789); test: inhibitors of human ALR sulfhydryl oxidase, dose response, biochemical, H2O2 detection, luminescence, cherry-pick (AID 493248)
INS1 = test: beta cell apoptosis inhibitors, cytokine rescue, dose response, luminescence, retest (AID 449756); assay type: functional, cell-based; conditions: Rattus norvegicus;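 note: cell death triggered by IL-1 beta plus TNF-alpha plus IFN-gamma mixture; protective hits raise ATP signal compared with cytokine alone wells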
[13] = microbe, parasite or virus in culture; assay type: functional; conditions: Mycobacterium tuberculosis
[14] = molecular target: T4, Rac GTPase-activating protein 1 (Homo sapiens, UniProt Q9H0H5); test: MgcRacGAP GTPase-activating activity inhibitors, confirmation, biochemical, ADP Hunter fluorescence, primary and confirmatory (AID 624330); assay type: functional
T4 sequence (Q9H0H5 whole entry): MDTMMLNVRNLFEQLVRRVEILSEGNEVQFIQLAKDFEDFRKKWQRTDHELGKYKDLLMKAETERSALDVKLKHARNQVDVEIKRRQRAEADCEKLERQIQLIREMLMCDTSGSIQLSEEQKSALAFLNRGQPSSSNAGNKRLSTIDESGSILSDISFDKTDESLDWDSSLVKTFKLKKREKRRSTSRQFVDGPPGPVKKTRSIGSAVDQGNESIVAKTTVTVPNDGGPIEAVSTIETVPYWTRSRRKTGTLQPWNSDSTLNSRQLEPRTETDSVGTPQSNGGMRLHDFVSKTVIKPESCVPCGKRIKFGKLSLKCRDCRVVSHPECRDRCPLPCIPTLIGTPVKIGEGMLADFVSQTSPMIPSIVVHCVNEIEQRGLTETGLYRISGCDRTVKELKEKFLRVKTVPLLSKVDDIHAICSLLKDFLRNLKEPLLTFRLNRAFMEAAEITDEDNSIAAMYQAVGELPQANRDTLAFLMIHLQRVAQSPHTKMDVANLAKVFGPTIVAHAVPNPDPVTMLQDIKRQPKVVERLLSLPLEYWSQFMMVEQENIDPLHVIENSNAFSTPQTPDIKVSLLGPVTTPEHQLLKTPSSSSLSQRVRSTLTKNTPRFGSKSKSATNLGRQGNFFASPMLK

[15] = growth suppression of beta-catenin-knockout colon cells, dose response, cell-based, HCT116, human colon tumor (AID 1045); assay type: functional;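 note: HCT116 colon tumor cells with beta catenin knocked out; cells exposed to compound for 60 hours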
[16] = P. falciparum Dd2 growth inhibitors, dose response, SYBR Green, cherry-picked samples (AID 1159567); assay type: functional, cell-based

Chain of Large T antigen (P03070 whole entry): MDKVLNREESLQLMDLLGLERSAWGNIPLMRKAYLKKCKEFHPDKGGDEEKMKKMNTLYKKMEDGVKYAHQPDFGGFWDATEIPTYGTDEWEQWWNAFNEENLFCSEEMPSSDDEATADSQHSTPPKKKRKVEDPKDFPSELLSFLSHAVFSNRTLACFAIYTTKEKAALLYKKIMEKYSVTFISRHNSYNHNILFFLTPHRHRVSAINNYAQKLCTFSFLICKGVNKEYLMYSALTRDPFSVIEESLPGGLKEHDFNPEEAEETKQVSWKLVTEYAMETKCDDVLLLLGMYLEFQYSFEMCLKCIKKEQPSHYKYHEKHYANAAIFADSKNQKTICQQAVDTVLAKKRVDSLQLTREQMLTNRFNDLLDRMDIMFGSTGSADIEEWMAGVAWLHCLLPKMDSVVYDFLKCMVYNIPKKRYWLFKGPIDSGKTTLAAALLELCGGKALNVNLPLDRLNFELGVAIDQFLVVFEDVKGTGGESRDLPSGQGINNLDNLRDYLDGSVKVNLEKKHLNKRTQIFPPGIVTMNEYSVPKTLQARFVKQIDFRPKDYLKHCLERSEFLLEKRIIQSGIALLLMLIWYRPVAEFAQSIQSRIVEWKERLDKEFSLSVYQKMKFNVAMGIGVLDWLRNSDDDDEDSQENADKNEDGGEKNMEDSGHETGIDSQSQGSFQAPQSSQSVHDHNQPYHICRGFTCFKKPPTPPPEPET
Chain of FAD-linked sulfhydryl oxidase ALR (P55789 whole entry): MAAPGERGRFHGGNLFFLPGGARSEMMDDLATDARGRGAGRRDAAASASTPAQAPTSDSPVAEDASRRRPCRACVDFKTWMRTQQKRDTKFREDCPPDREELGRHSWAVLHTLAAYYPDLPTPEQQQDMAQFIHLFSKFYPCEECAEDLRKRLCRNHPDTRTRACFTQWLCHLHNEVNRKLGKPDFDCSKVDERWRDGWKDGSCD

O=C(c1ccco1)c1nnn(Cc2ccccc2)c1-c1ccccc1
EC50 [1]: > 260 µM (inactive)
AC50 [2]: 3.72 µM (active)

CN(C)c1ccc(Nc2cc(Cl)ncn2)cc1
IC50 (Large T antigen): 7.46 µM (active)

CCOC(=O)CNc1c(-c2ccc(O)cc2)nc2ccc(Cl)cn12
IC50 (Large T antigen): 15.9 µM (active)

COc1ccc2c(c1)sc(=N)n2C
EC50 [3]: > 60 µM (inconclusive)
IC50 (cells): 30 µM (active)
EC50 [4]: 0.122 µM (active)

Oc1ccc(-c2csc(-c3c[nH]c4ccccc34)n2)c(O)c1
EC50 (H4): 10.2 µM (active)
EC50 [5]: 0.115 µM (active)
EC50 [6]: 4.35 µM (inconclusive)

CCCN1CCN(C(=O)c2ccc(Sc3ccc(C)cc3)c(NC(C)=O)c2)CC1
EC50 [1]: > 260 µM (inactive)

O=C(c1ccccc1)c1c[nH]c(C(=O)NNc2ccccc2)c1
EC50 [7]: > 38 µM (not active)
EC50 [8]: 28.3 µM (active)
EC50 [3]: 7.46 µM (active)
AC50 [2]: 1.09 µM (active)
EC50 [4]: 1.71 µM (active)

Cc1ccc(NC(=O)CCS(=O)(=O)c2ccc3c(c2)NC(=O)C(C)S3)nc1 (stereo not drawn)
EC50 [1]: > 260 µM (inactive)

O=C(Cc1ccc(O)cc1)NC1CCCCCC1
EC50 (H4): 16.8 µM (active)
EC50 [9]: > 195 µM (not active)
EC50 [5]: 47.4 µM (active)
EC50 [6]: 52 µM (active)

O=C1c2cccc3cccc(c23)C(=O)N1OS(=O)(=O)c1ccccc1
EC50 [1]: > 260 µM (inactive)

Cc1ccc(C(=O)CC(=O)c2ccccc2C)c(O)c1
EC50 (Streptococcus): 9.83 µM (active)
EC50 [7]: > 38 µM (not active)
EC50 [8]: > 150 µM (inactive)
EC50 [10]: 6.61 µM (active)
EC50 (Streptokinase A): > 150 µM (not active)

CC1CC(C)CN(C(=O)/C=C/c2ccc([N+](=O)[O-])s2)C1 (stereo not drawn)
AC50 [11]: 11.9 µM (active)

CCN(CC)c1ccc(C(=O)OCC(=O)c2ccco2)cc1
EC50 (H4): 57.4 µM (active)
EC50 [5]: 14.1 µM (active)
EC50 [6]: 94 µM (active)

O=C(CCCN1C(=O)c2cccc3cccc(c23)C1=O)Nc1ccon1
EC50 [1]: > 260 µM (inactive)

CCCc1cc(O)nc(SCC(=O)Nc2ccc(C)cc2)n1
EC50 [1]: > 260 µM (inactive)

COc1cccc(-c2nnc(SCc3cccnc3)o2)c1
EC50 (H4): 12.2 µM (active)
EC50 [5]: 43.2 µM (active)
EC50 [6]: 33.1 µM (active)

Cc1csc(Nc2ccccc2)[n+]1-c1ccccc1
AC50 [12]: 1.14 µM (active)
EC50 (H4): 6.74 µM (active)
EC50 [5]: > 120 µM (not active)
EC50 [6]: > 30 µM (not active)

O=C(CCN1CCCCCC1)c1ccccc1
AC50 [12]: 5.85 µM (active)
IC50 (cells): 41 µM (active)

O=C(NCCc1c[nH]c2ccccc12)c1ccc(Cl)cc1
EC50 (H4): > 120 µM (not active)
EC50 [5]: 21.9 µM (active)
EC50 [6]: > 120 µM (not active)

CNc1nnc(Sc2ncccc2[N+](=O)[O-])s1
IC50 (cells): 7.5 µM (active)

Cc1ccc(C#CC[N+]2(CC#Cc3ccc(C)cc3)CCCCC2)cc1
AC50 [11]: 3.95 µM (active)
EC50 [3]: > 60 µM (inconclusive)
AC50 (INS1): 2.04 µM (active)
CC50 [13]: > 40 µM (active)
EC50 [4]: 0.344 µM (active)

O=C(N/N=C/c1ccc(O)cc1O)/C(=C/c1ccccc1)CCO
IC50 (Large T antigen): 19.4 µM (active)
AC50 [2]: 6.81 µM (active)
AC50 (INS1): 2.11 µM (active)

COc1cc(/C=N/NC(=O)Cn2nnc3ccccc32)ccc1O
IC50 [14]: 24.3 µM (active)
IC50 (Large T antigen): 6.59 µM (active)

O=C(CNC(=O)c1ccccc1)N/N=C/c1ccc([N+](=O)[O-])s1
AC50 [11]: 5.34 µM (active)
EC50 [3]: 12.7 µM (active)
EC50 [4]: 0.285 µM (active)

CC(/C=N/Nc1n[nH]c2c3ccccc3nc-2n1)=C\c1ccco1
EC50 (H4): 15.5 µM (active)
EC50 [5]: 11 µM (active)
EC50 [6]: 17.6 µM (active)

CCOc1cc(/C=N/O)ccc1OS(=O)(=O)c1ccc(C)cc1
EC50 [15]: 312 µM (active)

O=C(CN1c2ccccc2Sc2ccccc21)N/N=C/c1ccc(Cl)cc1
EC50 [1]: > 260 µM (inactive)

COc1cc(/C=N/NC(=O)CSc2ccccn2)ccc1O
IC50 (Large T antigen): 9.69 µM (active)

COc1cc(/C=N/NC(=O)CNc2nnc(O)nc2O)ccc1O
IC50 [14]: 35.9 µM (active)
IC50 (Large T antigen): 8.93 µM (active)

COc1ccc2c3c([nH]c2c1)[C@H](CO)N(Cc1ccc(F)cc1)CC31CCN(Cc2ccccn2)CC1
AC50 [16]: 2.95 µM (active)

CCC(=O)N1CC2(C1)CN(Cc1cc(F)ccc1F)[C@@H](CO)c1[nH]c3cc(OC)ccc3c12
AC50 [16]: 7.9 µM (active)

C/C=C/c1ccc2c(c1)[C@H]1[C@H](CCN1C(=O)C1CCCC1)[C@@H](CO)N2
AC50 [16]: 4.97 µM (active)

C/C=C/c1ccc([C@H]2[C@@H](CO)N(CC3CCCC3)C23CN(C(=O)CC2CC2)C3)cc1
AC50 [16]: 4.55 µM (active)

N#Cc1ccc(-c2ccc3c(c2)[C@H]2[C@H](CCN2C(=O)C2CCCC2)[C@H](CO)N3)cc1
AC50 [16]: 4.55 µM (active)

O=C1C2CCCCN2C(=O)N1CCCN1CCN(c2ccc(F)cc2)CC1 (stereo not drawn)
EC50 [1]: > 260 µM (inactive)
